Results published in US20110166417A1, “METHOD AND DEVICE FOR REPAIR OF DEGENERATIVE CARTILAGE” (THE REGENTS OF UNIVERSITY OF MICHIGAN, priority 2008, published 2011).

What was measured:
[1] = tested on: aggrecan and type II collagen mRNA expression in rat IVD cells; assay: BMP inhibition experiment (noggin); format: cell-based
Procedure: BMP Inhibition Experiment. […] On day 7 and/or day 14, the cells were removed from the alginate beads and the gene expression of type II collagen and aggrecan was determined.

[2] = biological target: T1, BMP-2 (Homo sapiens, UniProt P12643); details: noggin 3 μg/ml; cited from earlier work
T1 sequence (P12643 283-396): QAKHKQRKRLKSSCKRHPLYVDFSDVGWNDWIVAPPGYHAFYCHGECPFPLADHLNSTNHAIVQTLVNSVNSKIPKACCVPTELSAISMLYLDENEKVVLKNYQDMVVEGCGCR

[3] = tested on: BMP-2, aggrecan and collagen II mRNA expression in IVD cells; assay: Quantitative real-time PCR, monolayer culture; format: cell-based, Sprague-Dawley rats; details: 3 μM, maximal at day 3
Description: (§1) Disc cell isolation: Nucleus pulposus and inner anulus fibrosus cells of lumbar intervertebral discs from Sprague-Dawley rats were harvested by the enzymatic digestion and grown in monolayer until reached confluence.
(§2) Monolayer and Three-dimensional cell culture: Cells were trypsinized and subcultured in 12-well plate or embedded and cultured in alginate beads supplemented with complete DMEM/F12 medium after primary culture.
Quantitative real-time PCR: Total RNAs were extracted and cDNAs were synthesized using Invitrogen […]™ first-strand synthesis kit.

[4] = tested on: BMP-2, aggrecan and type II collagen mRNA expression in rat IVD cells; assay: Quantitative real-time PCR, 3-D culture in alginate beads; format: cell-based, Sprague-Dawley rats
Description: Monolayer and Three-dimensional cell culture: Cells were trypsinized and subcultured in 12-well plate or embedded and cultured in alginate beads supplemented with complete DMEM/F12 medium after primary culture. […] Quantitative real-time PCR: […] IVD Cell Isolation. Lumbar IVDs from Sprague-Dawley rats (Harlan Sprague-Dawley, Indianapolis, Ind.) aged 6-8 weeks were harvested immediately after euthanasia. NP and inner AF, including the transition zone (the area between the AF and the NP) were carefully removed from the disc and placed in DMEM/F12 medium (Gibco, Grand Island, N.Y.). […] Louis, Mo.) and 0.004% deoxyribonuclease II (Sigma-Aldrich) for 90 min at 37° C. under gentle agitation. The tissues were washed 3 times with Dulbecco's phosphate buffered saline (D-PBS) followed by digestion under the same conditions, except that the pronase was replaced with 0.04% collagenase type II (Sigma-Aldrich) for 6 hrs. […] Culture medium was changed on day 6 after cell seeding, and twice per week thereafter. Cell Culture in Alginate Beads. When the primary cell culture became confluent, the cells were trypsinized and washed twice with D-PBS and re-suspended in sterile 0.15 M NaCl containing 1.2% low-viscosity alginate (Sigma-Aldrich) at a density of 1×10^6 cells/ml. […] After 15 min, the newly formed alginate beads (containing about 12,000 cells/bead) were washed 3 times with sterile 0.15 M NaCl solution followed by 2 washes with DMEM/F-12 medium. […] Three days later, the medium was changed and treated with different doses of simvastatin (LKT Laboratories, St. […] To remove cells from the alginate bead, wells were rinsed 3 times with 0.15 M NaCl with gentle pipetting into the well. The rinse solution was incubated for 1 min and was aspirated off. Dissolving buffer (55 mmol/L sodium citrate and 0.15 M NaCl, pH 6.0) 3 times the volume of alginate was added to the wells, and plates were incubated at 37° C. for 15 min with gentle shaking. Cells were pelleted by centrifugation and the dissolved solution was collected for sGAG content measurement. The cell pellet was washed with D-PBS once and collected for DNA content determination or RNA extraction. All experiments were performed in triplicate. RNA Isolation and Reverse Transcription. Total RNA was extracted using the Trizol (Invitrogen, Carlsbad, Calif.) reagent followed by RNeasy Mini Kit (Qiagen, Inc., Valencia, Calif.) and DNase digestion with the RNase-free DNase set (Qiagen). Concentration of total RNA was determined at 260 nm with a spectrophotometer. Reverse transcription was carried out at 42° C. for 50 min in 20-μL volume with 100 ng of total RNA using the SuperScript First-Strand Synthesis System (Invitrogen, Carlsbad, Calif.). Quantitative Real-Time Polymerase Chain Reaction. Real-time polymerase chain reaction (PCR) was used to quantify gene expression levels of type II collagen, aggrecan, and BMP-2. GAPDH was used as an internal control and the TAQMAN® Real-Time PCR Kit (Applied Biosystems, Foster City, Calif.) was implemented. Reaction volume of 30 μl included 1 μL of cDNA, 1.5 ul of 20× of each primer/probe, and 12.5 μL of TAQMAN® PCR Master Mix (2×) (Applied Biosystems). Real-time PCR was performed using the following 3-step protocol: Step 1, 50° C. for 2 min; Step 2, 95° C. for 10 min; and Step 3, (95° C. for 15 sec, 60° C. for 1 min) times 45 cycles using the Gene Amp 7700 Sequence Detection System (Applied Biosystems). A positive standard curve for each primer was obtained by real-time PCR with serially-diluted cDNA sample mixture. The reaction efficacy of each gene was determined using the standard curves. The quantity of gene expression of aggrecan, type II collagen, and BMP-2 were calculated with standard samples and normalized with GAPDH internal control.

[5] = tested on: IVD cells; assay: IVD cell proliferation / range of cell tolerance; format: cell-based, Sprague-Dawley rats; details: rat IVD cells
Description: as §1, §2

[6] = tested on: rat IVD cells; assay: MTT assay, cell viability; format: cell-based
Procedure: MTT assay. Cell proliferation was determined by a modified MTT assay (Sigma-Aldrich) (47, 48). Briefly, at each time point, the medium was aspirated and washed with PBS once. MTT solution (0.5 mg/ml) in PBS was added and incubated at 37° C. for 1.5 hr. The cells were removed from the alginate bead and pelleted by centrifugation. The cell pellet was then washed with D-PBS once and 10% Triton X-100, 0.1 N HCl in 2-propanol solution was added to each well to dissolve the formazan at 4° C. for 3 hrs. The dissolved solution was centrifuged and the absorbance was determined immediately using a spectrophotometer at 540 nm wavelength filter. All experiments were performed in triplicate.

[7] = tested on: BMP-2, aggrecan and type II collagen mRNA expression in rat IVD cells; assay: Mevalonate experiment; format: cell-based; details: mevalonate 200 μM
[8] = noggin 3 μg/ml, simvastatin 3 μM, day 14

For Noggin, the “aggrecan and type II collagen mRNA expression, noggin alone” value ([1]; noggin 500 ng/ml, no simvastatin) was “had no interference”, the “block of aggrecan and type II collagen gene expression upregulated by simvastatin” value ([1]; noggin 500 ng/ml, simvastatin 3 μM, day 7) was “significantly blocked” and the “block of aggrecan and type II collagen gene expression upregulated by simvastatin” value ([1]; noggin 500 ng/ml, simvastatin 3 μM, day 14) was “did not endure”. The “aggrecan and type II collagen gene expression compared with Veh+Veh, noggin alone” value ([1]; noggin 3 μg/ml) was “inhibited both gene expressions significantly”, the “effect on aggrecan gene expression upregulated by simvastatin” value [1, 8] was “failed to block” and the “effect on type II collagen gene expression upregulated by simvastatin” value [1, 8] was “attenuated”. For the same molecule, the “effect on type II collagen gene expression upregulated by simvastatin” value ([1]; noggin 3 μg/ml, simvastatin 3 μM, day 14, listed as noggin) was “significantly attenuated” and the “block of BMP-2 activity” value [2] was “over 90%”.

In the case of CCC(C)(C)C(=O)O[C@H]1C[C@@H](C)C=C2C=C[C@H](C)[C@H](CC[C@@H]3C[C@@H](O)CC(=O)O3)[C@H]21 [simvastatin], the “increase of BMP-2 mRNA expression” value [3] is reported as 2 fold, the “increase of collagen type II mRNA expression” value ([4]; 3-D culture (alginate beads), 3 μM, day 21) is reported as 16 fold and the “increase of aggrecan mRNA expression” value ([4]; 3-D culture, 3 μM, day 21) is reported as 11 fold. The “increase of BMP-2 mRNA expression” value ([4]; 3-D culture, 3 μM, peak level at day 7) was 5 fold, the “day of maximal type II collagen mRNA expression” value ([4]; alginate beads) was 21 days and the “day of maximum BMP-2 mRNA expression” value ([4]; alginate beads, 3 μM) was 2 days. The “day of maximum aggrecan mRNA expression” value ([4]; alginate beads, 3 μM) was 21 days, the “dose over which IVD cell proliferation was inhibited” value [5] was “over 3 μM” and the IVD cell viability ([6]; 0.3 μM, time points tested) was “had no effect”. The IVD cell viability ([6]; 1 μM, from day 3 and thereafter) was “significant decrease” and the IVD cell viability ([6]; 3 μM, all time points tested) was “decreased”.

For CC(O)(CCO)CC(=O)O (stereo not drawn) [Mevalonate, mevalonate], the “aggrecan, type II collagen and BMP-2 gene expression, mevalonate alone” value ([7]; alginate beads) was “had no effect” and the “effect on gene expression (BMP-2, aggrecan, type II collagen) upregulated by simvastatin” value ([7]; simvastatin 3 μM, days 7 and 14) was “completely reversed”.
